# Patent publication US20140161720A1, “TREATMENT OF ANGIOGENIC- OR VASCULAR-ASSOCIATED DISEASES” (THE GENERAL HOSPITAL CORPORATION, priority 2011, published 2014)
# “Also recorded” adds a separate entry of the source.
# Assays:
# [1] = tested on: Tg(fli1:EGFP)^y1 zebrafish embryos; assay: Vascular development in zebrafish embryos; type: in vivo
# Experimental: Zebrafish were raised in accordance with the established protocols (19-20). The age of embryos is indicated by the hours after fertilization and days after fertilization for all experimental data shown herein. For the screening study, zebrafish embryos were incubated with the selected compounds at a concentration of 5-10 μM. Treated embryos were then examined under a 100× PlanNeofluor objective mounted on a Nikon TE-200 epifluorescence microscope. Images of embryos bearing GFP-positive cells were captured with a Zeiss stereomicroscope.
# To elucidate the potential impact of DAL on the process of vascular network formation, its effects in zebrafish embryos at different stages of development were assessed. To visualize vessel defects, transgenic fish expressing EGFP in endothelial cells (Tg(fli1:EGFP)^y1) were used (19-20). This model expresses EGFP in blood vessel ECs throughout normal development and during fin regeneration (21). The effects of DAL on normal vascular development in zebrafish embryos were first characterized. In control embryos, developing vessels migrated from the lateral plate mesoderm to the midline, where they coalesced into a vascular cord. These endothelial clusters subsequently established the pattern of the dorsal aorta and posterior cardinal vein. Intersomitic vessels sprouted at designated branch sites in control embryos after dorsal aorta formation.
# recombinant purified IDO = recombinant purified IDO (Homo sapiens, UniProt P14902); settings: cited (He et al., 2008); cited from earlier work
# [2] = tested on: orthotopic 4T1 mammary tumors; assay: Vascular parameters in tumors by intravital multiphoton microscopy; type: in vivo, female SCID mice; settings: 37.5 mg/kg daily i.p.
# Experimental: Female SCID mice bearing orthotopic GFP-labeled 3 mm 4T1 mammary tumors were treated with five daily i.p. injections (day 0-day 4) of 37.5 mg/kg DAL or saline. Implanted mammary fat pad windows (35) were surgically implanted to facilitate intravital imaging through multiphoton microscopy with a custom-built multiphoton microscope with a 20×0.95NA objective (Olympus), and mice were imaged by fluorescent angiography following retro-orbital injection of 60 uL of 10 mg/mL TAMRA-dextran (2MDa molecular mass). Images were collected on day 0, day 2, and day 4, with the first images collected immediately before the first treatment. The 2×2 grids were imaged in the sample plane (630-μm) field of view at each position) tissue from 0-200 μm depth. To measure vascular parameters in the mice over the course of treatment, a custom 3D vascular tracing and analysis software package based on MATLAB (The Mathworks) was applied to the images.
# To study these effects quantitatively, fluorescent angiographies were conducted in female SCID mice bearing orthotopic 4T1 mammary tumors in mammary fat pad windows via intravital multiphoton microscopy (FIG. 3A) (22-24). These mice were treated with 37.5 mg/kg DAL or saline daily for 5 days by i.p. injection. It was determined that DAL treatment decreases tumor vascular volume fractions—a measure of vascular density—compared with saline treatment (FIG. 3B, p<0.002, day 4).
# Rac1 = Rac1 ubiquitination, Duolink in situ proximity assay in HUVECs; type: cell-based, human; settings: HUVEC, lactacystin or MG-132 pretreatment, DAL 10 μM 24 hours
# Experimental: HUVEC cells were treated with 10 μM of DAL for 24 hours and then lysed. A western blot with anti-human Rac1 antibody is shown on top panel while the bottom panel represents a loading control. […] To enhance ubiquitination events, HUVEC cells were pretreated with the proteasome inhibitors lactacystin (2.5 mM) or MG-132 (0.2 mM) for one hour and subsequently treated with DAL (10 μM) of DAL for 24 hours. Duolink in situ was used for the detection of ubiquitinated Rac1 in DAL treated and untreated HUVEC cells. For the two Duolink PLA probes, primary mouse antibodies raised against human Rac1 and primary rabbit anti-ubiquitin were used. Fluorescent spots represent ubiquitinated Rac1. The nuclei with additionally stained DAPI.
# However, protein levels of Rac1 were reduced after DAL treatment (FIG. 6B). Next, it was assessed whether DAL can enhance Rac1 ubiquitination and therefore promote or speed up degradation (31-34). For the detection of Rac1 ubiquitination in HUVECs, Rac1-ubiquitin binding in situ was identified using a Duolink molecular proximity assay. In this assay, molecules thought to interact are targeted with fluorescent antibodies in situ, and individual interactions generate a signal detectable by microscopy only if secondary antibodies are located in close proximity to each other. […]
# HUVEC = assay: In vitro vascular network formation on matrigel; type: cell-based, human
# Experimental: For F-actin visualization, HUVECs were plated and treated with saline or DAL (10 μM) for three hours. After fixing and permeabilizing these cultured cells, the cells were subsequently stained with phalloidin. […] Existing cordlike structures, when exposed to 10 μM of DAL for 3 hours, were also disrupted. […] HUVEC monolayers were disrupted mechanically with a pipette tip and the migration of cells to “heal” the wound was monitored using microscopy.
# To assess whether DAL affects EC functions, in vitro models of vascular network formation from HUVECs were used. After overnight cultivation in matrigel, HUVECs spontaneously assemble into cord-like structures that resemble vascular networks. […] Since DAL affects actin cytoskeleton assembly, the effect of DAL on cell motility was next assessed. A scratch wound assay was utilized to study HUVEC motility based on the healing rate of a wounded monolayer.
# [3] = Pharmacokinetics after intraperitoneal administration; type: in vivo; settings: after i.p. dosing, 100% DMSO formulation, male CD-1 mice
# Excerpt: FIG. 8 is a graph showing pharmacokinetic parameters after intraperitoneal administration of DAL.
# recombinant purified IDO, sequence (P14902 whole entry): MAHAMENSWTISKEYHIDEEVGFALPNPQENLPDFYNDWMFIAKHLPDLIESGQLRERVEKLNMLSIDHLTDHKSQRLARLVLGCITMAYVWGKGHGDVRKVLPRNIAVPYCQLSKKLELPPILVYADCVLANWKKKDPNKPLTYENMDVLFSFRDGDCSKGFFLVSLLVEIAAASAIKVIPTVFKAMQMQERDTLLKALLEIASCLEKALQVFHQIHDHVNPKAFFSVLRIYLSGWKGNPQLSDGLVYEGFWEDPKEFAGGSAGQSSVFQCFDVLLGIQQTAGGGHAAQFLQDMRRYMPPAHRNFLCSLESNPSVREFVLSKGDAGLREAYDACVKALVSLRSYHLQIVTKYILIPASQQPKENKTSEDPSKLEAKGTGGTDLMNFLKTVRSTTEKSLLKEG
smiles,measurement,setting,value
"CC1(C)C=CC2=C(O1)C(=O)c1ccccc1C2=O [DAL, dehydro-alpha-lapachone]",complexity of the arterial network,[1]; zebrafish embryos,profound reduction
same,vessel branch formation / sprouting of intersomitic vessels,"[1]; zebrafish embryos 48 hours after fertilization, DAL 5 μM",failed to occur; also recorded: failed to form vessel branches
same,mode of IDO inhibition with respect to L-tryptophan,recombinant purified IDO,non-competitive
same,total tumor vascular length (normalized to tumor volume),"[2]; day 2 and day 4, versus saline",lower
same,tumor vascular volume fraction,"[2]; day 4, versus saline",decreases; also recorded: lower
same,mean tumor vascular diameter,[2]; versus saline,remains the same; also recorded: no significant difference
same,Rac1 ubiquitination,Rac1,more ubiquitinated Rac1 protein; also recorded: increases
same,effect on existing cordlike networks,HUVEC; 10 μM for 3 hours,complete reorganization of existing networks; also recorded: disrupted
same,HUVEC network formation on matrigel,HUVEC; after 24 hours / overnight cultivation,blocks HUVEC network formation; also recorded: disjoined networks
same,half-life in plasma,[3],1.7 h
